Experimental data from publication PMC8279416, “Structural Fine-Tuning of Desmuramylpeptide NOD2 Agonists Defines Their In Vivo Adjuvant Activity” (Journal of Medicinal Chemistry, 2021).

Assays:
Assay type in all cases: cell-based
NOD2 [1] = biological target: T1, NOD2 (Homo sapiens, UniProt Q9HC29); experiment: Specificity: NOD2 antagonist pretreatment of HEK-Blue NOD2 cells; settings: 10 μM NOD2 antagonist 1 h, then 2 μM compound 18 h
T1 construct: host or cells: HEK-Blue NOD2 cells (HEK293-derived)
T1 sequence (Q9HC29 whole entry): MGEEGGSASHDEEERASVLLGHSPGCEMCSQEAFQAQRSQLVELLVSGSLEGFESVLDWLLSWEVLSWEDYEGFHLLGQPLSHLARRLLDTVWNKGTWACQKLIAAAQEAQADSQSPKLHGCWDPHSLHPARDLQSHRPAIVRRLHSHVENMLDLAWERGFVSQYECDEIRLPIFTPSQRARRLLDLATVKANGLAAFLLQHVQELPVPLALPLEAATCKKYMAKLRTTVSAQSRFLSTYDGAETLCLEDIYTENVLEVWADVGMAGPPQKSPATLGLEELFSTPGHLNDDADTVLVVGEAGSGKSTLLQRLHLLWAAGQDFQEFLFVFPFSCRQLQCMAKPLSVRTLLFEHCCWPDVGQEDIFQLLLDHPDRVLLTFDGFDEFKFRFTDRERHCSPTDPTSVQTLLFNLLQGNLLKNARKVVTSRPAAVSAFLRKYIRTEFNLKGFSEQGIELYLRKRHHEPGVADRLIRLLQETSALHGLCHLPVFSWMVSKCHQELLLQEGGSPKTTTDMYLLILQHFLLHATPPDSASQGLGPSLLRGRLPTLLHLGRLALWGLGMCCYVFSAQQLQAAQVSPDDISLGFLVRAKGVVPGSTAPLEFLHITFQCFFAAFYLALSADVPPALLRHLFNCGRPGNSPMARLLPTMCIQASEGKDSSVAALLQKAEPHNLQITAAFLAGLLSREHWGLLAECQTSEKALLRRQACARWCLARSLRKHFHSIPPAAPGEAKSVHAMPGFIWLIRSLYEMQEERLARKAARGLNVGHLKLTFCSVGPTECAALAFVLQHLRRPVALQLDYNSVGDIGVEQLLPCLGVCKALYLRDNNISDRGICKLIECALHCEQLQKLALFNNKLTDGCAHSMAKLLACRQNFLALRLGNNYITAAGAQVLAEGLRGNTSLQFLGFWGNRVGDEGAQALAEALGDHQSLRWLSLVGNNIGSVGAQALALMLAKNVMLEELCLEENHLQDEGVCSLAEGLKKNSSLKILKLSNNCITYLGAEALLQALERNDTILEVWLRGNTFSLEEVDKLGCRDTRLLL
Description: Furthermore, the specificities were determined by pretreating HEK-Blue NOD2 cells with a previously reported NOD2 antagonist[77] prior to stimulation with MDP (2 μM) or the desmuramylpeptides (2 μM). The resulting NF-κB-induced SEAP activities were compared to those of the controls without the NOD2 antagonist pretreatment.
(§1) HEK-Blue NOD2 and NOD1 cell line reporter assays are derived from HEK293 cells by cotransfection of the hNOD2 or hNOD1 genes, respectively, and an NF-κB-inducible secreted embryonic alkaline phosphatase (SEAP) reporter gene. Following activation of NOD2 or NOD1, the resulting NF-κB induces production of SEAP, the levels of which can be quantified colorimetrically. […] After 18 h of incubation (37 °C, 5% CO2), secreted embryonic alkaline phosphatase (SEAP) activity was determined spectrophotometrically as absorbance at 630 nm (BioTek Synergy microplate reader; Winooski, VT, U.S.A.). EC50 values were calculated using Prism software (version 9; GraphPad Software, CA, U.S.A.). For determination of specificity, HEK-Blue NOD2 cells (2.5 × 10^5 cells/mL) were first pretreated for 1 h with a 10 μM NOD2 antagonist, before the addition of the compounds (2 μM), with incubation for 18 h. SEAP activity in the supernatants was determined as above. The experiments were run in duplicate and repeated as at least two independent biological replicates.
Supporting figure S2. […]

NOD2 [2] = biological target: T1, NOD2; experiment: HEK-Blue NOD2 cell line reporter assay (NF-κB-inducible SEAP); settings: HEK-Blue NOD2 cells, 18 h, mean ± SEM
NOD1 = biological target: T2, NOD1 (Homo sapiens, UniProt Q9Y239); experiment: HEK-Blue NOD1 cell line reporter assay (selectivity); settings: HEK-Blue NOD1 cells, 2 μM, 18 h
T2 construct: host or cells: HEK-Blue NOD1 cells (HEK293-derived)
T2 sequence (Q9Y239 1-953): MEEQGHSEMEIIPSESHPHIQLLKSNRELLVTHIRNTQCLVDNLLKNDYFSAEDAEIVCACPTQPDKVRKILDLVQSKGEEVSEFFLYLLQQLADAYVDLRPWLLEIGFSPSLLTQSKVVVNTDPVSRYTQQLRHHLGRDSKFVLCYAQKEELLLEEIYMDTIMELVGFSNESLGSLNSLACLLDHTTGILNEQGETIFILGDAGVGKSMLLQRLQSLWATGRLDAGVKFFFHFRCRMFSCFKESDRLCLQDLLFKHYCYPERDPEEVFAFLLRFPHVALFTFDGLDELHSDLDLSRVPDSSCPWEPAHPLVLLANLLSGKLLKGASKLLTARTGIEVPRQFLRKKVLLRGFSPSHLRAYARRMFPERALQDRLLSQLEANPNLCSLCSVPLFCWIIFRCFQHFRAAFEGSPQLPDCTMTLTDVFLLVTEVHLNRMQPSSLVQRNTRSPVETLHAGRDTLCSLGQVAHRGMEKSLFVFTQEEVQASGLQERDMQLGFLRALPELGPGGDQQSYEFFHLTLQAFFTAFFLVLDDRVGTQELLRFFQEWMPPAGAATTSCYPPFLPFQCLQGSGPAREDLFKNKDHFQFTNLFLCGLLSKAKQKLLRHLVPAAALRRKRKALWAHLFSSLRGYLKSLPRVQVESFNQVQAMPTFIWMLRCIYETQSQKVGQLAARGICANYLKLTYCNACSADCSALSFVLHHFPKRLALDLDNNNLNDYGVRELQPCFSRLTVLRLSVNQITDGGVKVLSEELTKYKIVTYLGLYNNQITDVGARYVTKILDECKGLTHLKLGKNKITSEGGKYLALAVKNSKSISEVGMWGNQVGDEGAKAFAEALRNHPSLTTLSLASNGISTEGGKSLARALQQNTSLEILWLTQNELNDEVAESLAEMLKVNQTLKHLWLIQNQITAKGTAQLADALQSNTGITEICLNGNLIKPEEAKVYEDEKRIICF
Description: As NOD2 and NOD1 agonists share certain structural characteristics, we wanted to determine whether these compounds selectively target NOD2. Selectivity against NOD1 of MDP and all of these synthesized desmuramylpeptides was analyzed in an analogous assay with the HEK-Blue NOD1 cell line.
as §1
Supporting figure S2. NOD1 agonistic activities of desmuramylpeptides. […]

NF-κB transcriptional activity after NOD2 antagonist pretreatment (NOD2 [1]): reduced NOD2 activation
NOD2 activity at 2 μM (fold increase) (NOD2 [2]; 2 μM, NF-κB transcriptional (SEAP) activity relative to 0.1% DMSO): 2.28 ± 0.07 fold increase
EC50 (NOD2 [2]; 7 or 8 concentrations 1 nM to 20 μM): 1730 ± 101 nM
NOD1 agonistic activity (NOD1): showed no activity in the NOD1 assay
Structure (SMILES): CCOC(=O)CC[C@@H](NC(=O)[C@@H](NC(=O)CNC(=O)/C=C/c1ccc(O)c(O)c1)C(C)C)C(=O)OCC [Compound 21, Diethyl ((E)-3-(3,4-Dihydroxyphenyl)acryloyl)glycyl-L-valyl-D-glutamate]
